Assay results published in patent US20030022794A1, “Novel quaternary salts and their use in agricultural formulations” (priority 1997, published 2003).
Values belong to the molecule of their own block, whether it stands above or below them.

Assays:
Assay type in all cases: physicochemical
[1] = saturation of deionized water; conditions: tech material
Procedure: (§1) Deionized water (5 g) was saturated with 2-[[[[(4,6-dimethoxy-2-pyrimidinyl)amino]carbonyl]amino]sulfonyl]-N,N-dimethyl-3-pyridinencarboxamide tech (500 ppm) and aged at 25° C. for 30 days.

[2] = solubility in organic solvents (epoxidized soybean oil, methyl caprylate/caprate, cottonseed oil)
Procedure: (§2) Tetradodecyl ammonium bromide was dissolved in 5 mL of CH2Cl2 and stirred with 3.3 mL of 1 N NaOH. To this was added 1.27 g of N-[[(4,6-dimethoxypyrimidine-2-yl)amino]carbonyl]-1-methyl-4-(2-methyl-2H-tetrazol-5-yl)-H-pyrazole-5-sulfonamide (97.8%) dissolved in 5 mL of CH2Cl2 and stirring continued for 5 min at 25° C. The organic phase was separated, washed with water, dried and the solvent removed tinder vacuum in a rotary evaporator at a maximum of 50° C. The resulting viscous, colorless oil gave an assay of 35% of the corresponding sulfonylurea quaternary salt (vs. 38% theory) using HPLC. This oil was more than-50% soluble in epoxidized soybean oil, methyl caprylate/caprate, and cottonseed oil. 50% solutions of the resultant sulfonylurea quaternary salt in these three solvents were aged 1 week at 54° C., giving 20-45% relative degradation by HPLC analysis.

[3] = storage stability on aging, decomposition of the sulfonylurea measured by HPLC
Procedure: To 21.57 g 2-[[[[(4,6-dimethoxy-2-pyrimidinyl)amino]carbonyl]-amino]sulfonyl]-N,N-dimethyl-3-pyridinecarboxamide and 50 mL 1.0 N NaOH in 1400 mL methylene chloride was incrementally added 22.37 g of diisobutylphenoxy ethoxyethyl dimethylbenzyl ammonium chloride (Hyamine 1622, commercially available from Lonza), with several small methylene chloride washes to facilitate transfer. The reaction medium was filtered through a bed of molecular sieves to remove mineral salts and water. Methylene chloride was stripped to recover the white powder. Upon aging for 1 week at 54 C., 9% relative decomposition of the sulfonylurea resulted as measured by HPLC.
Into 7.8 g of epoxidized soybean oil (ESBO) was added with stirring: 1.18 g methyl 3-[[[[(4-methoxy-6-methyl-1,3,5-triazin-2-yl)amino]carbonyl]amino]sulfonyl]-2-thiophenecarboxylate tech (98.1%), 1.31 g of anhydrous diisobutylphenoxy ethoxyethyl dimethylbenzyl ammonium chloride […] (Hyamine 1622, available from Lonza), 0.11 g Ca(OH)2, and 0.03 g calcium acetate. The mixture was aged 3 weeks at 45° C. giving 0% relative decomposition of the sulfonylurea as measured by HPLC.
A solution on 15 g of methyl 2-[[[[(4-methoxy-6-methyl-1,3,5-triazin-2-yl)methylamino]carbonyl]amino]sulfonyl]benzoate tech (95.7%) and 18 g of Na2CO3 in 300 g of CH2Cl2 was treated with 1.5 g of NaOH and stirred 2 h. 8.65 g of benzyl triethyl ammonium chloride was added to the suspension and the mixture stirred overnight. The suspension was filtered and the filtrate stripped of solvent on a rotary evaporator yielding the corresponding sulfonylurea quaternary salt as a viscous yellow oil (15.7 g) using 1 g of the oil, a 20% solution of the quaternary salt was made in triethyl phosphate. Upon aging for 1 week at 54° C., 1% relative decomposition of the sulfonylurea resulted as indicated by HPLC.
A quaternary salt sulfonylurea was prepared using the procedure of Example 3 with 20 g methyl 2-[[[[(4-methoxy-6-methyl-1,3,5-triazin-2-yl)methylamino]carbonyl]-amino]sulfonyl]benzoate, 30 g Na2CO3, 400 g CH2Cl2, 2 g NaOH and 11.5 g benzyl triethyl ammonium chloride. One gram of the resulting orange viscous oil was made up as a 20% solution in triethyl phosphate. Upon aging for 1 week at 54° C., 2% relative decomposition of the sulfonylurea resulted as indicated by HPLC.
as §2
In a vial was vortexed the following: 0.214 g methyl 2-[[[[[(4,6-dimethoxy-2-pyrimidinyl)amino]carbonyl]amino]sulfonyl]methyl]benzoate (98.3%), 0.192 g of a 25% aqueous solution of tetramethyl ammonium hydroxide, and 4.32 g of water to produce the sulfonylurea quaternary salt. Upon aging the solution at 54° C. for one week, 52% degradation of the sulfonylurea resulted as measured by HPLC.
as §1

[4] = 20% solution in triethyl phosphate, aging 1 week at 54° C., HPLC

Molecule: COc1cc(OC)nc(NC(=O)NS(=O)(=O)c2ncccc2C(=O)N(C)C)n1 [C, 2-[[[[(4,6-dimethoxy-2-pyrimidinyl)amino]carbonyl]amino]sulfonyl]-N,N-dimethyl-3-pyridinencarboxamide]
- concentration at saturation in deionized water [1]: 500 ppm

- solubility [2]: > 50%
- relative degradation [3]: 20-45%
Molecule: CCCCCCCCCCCC[N+](CCCCCCCCCCCC)(CCCCCCCCCCCC)CCCCCCCCCCCC.COc1cc(OC)nc(NC(=O)[N-]S(=O)(=O)c2c(-c3nnn(C)n3)cnn2C)n1 [A]

- relative decomposition of the sulfonylurea [3, 4]: 2%
Molecule: Quaternary Salt of Methyl 2-[[[[(4-Methoxy-6-Methyl-1,3,5-Triazin-2-yl)Methylamino]carbonyl]amino]sulfonyl]benzoate [Example 4]

- relative decomposition of the sulfonylurea [3, 4]: 1%
Molecule: Quaternary Salt of Methyl 2-[[[[(4-Methoxy-6-Methyl-1,3,5-Triazin-0.2-yl)Methylamino]carbonyl]amino]sulfonyl]benzoate [Example 3]

Molecule: COC(=O)c1ccccc1CS(=O)(=O)[N-]C(=O)Nc1nc(OC)cc(OC)n1.C[N+](C)(C)C [B]
- degradation of the sulfonylurea ([3]; aqueous solution, aging at 54° C. for one week, HPLC): 52%

- solubility (in words) ([2]; in epoxidized soybean oil, methyl caprylate/caprate, and cottonseed oil): practically insoluble
Molecule: COc1cc(OC)nc(NC(=O)NS(=O)(=O)c2c(-c3nnn(C)n3)cnn2C)n1 [N-[[(4,6-dimethoxypyrimidine-2-yl)amino]carbonyl]-1-methyl-4-(2-methyl-2H-tetrazol-5-yl)-1H-pyrazole-5-sulfonamide]

- relative decomposition of the sulfonylurea ([3]; in situ mixture in epoxidized soybean oil with Ca(OH)2 and calcium acetate, aged 3 weeks at 45° C., HPLC): 0%
Molecule: In situ Quaternary Salt of Methyl 3-[[[[(4-Methoxy-6-Methyl-1,3,5-Triazin-2-yl)Amino]carbonyl]amino]sulfonyl]-2-Thiophenecarboxylate [Example 2]

- relative decomposition of the sulfonylurea ([3]; isolated white powder, aging 1 week at 54 C, HPLC): 9%
Molecule: Quaternary salt of 2-[[[[(4.6-Dimethoxy-2-Pyrimidinyl)amino]carbonyl]amino]sulfonyl]-N,N-Dimethyl-3-Pyridinecarboxamide [Example 1]
